Data on one molecule can be found in the NIST ThermoML archive (doi:10.1021/je900545v).

The term mass density denotes mass per unit of volume. One may read the viscosity as the resistance of a fluid to flow.

The conditions of this series: 298.15 K, 101 kPa, Liquid.

± gives the expanded uncertainty stated by the source.

Regarding `C=CCn1cc[n+](C)c1.[Cl-]` [1-allyl-3-methylimidazolium chloride], the mass density was 1166 ± 2.7 kg/m3 and the viscosity amounted to 821 ± 310 mPa·s. In addition, the electrical conductivity (DDSJ-308A Conductometer) amounted to 0.00695 ± 0.00069 S/m.
